The results in this text go back to ChEMBL document CHEMBL3098076, “Triazino indole-quinoline hybrid: a novel approach to antileishmanial agents” (Bioorg Med Chem Lett, 2014).

Data set [1] relates to Leishmania donovani. The experiment in a line: Antileishmanial activity against intracellular amastigote stage of Leishmania donovani MHOM/IN/80/Dd8 expressing luciferase firefly reporter gene infected in mouse J774A1 cells after 72 hrs by luminescence assay. Format: functional, organism-based, J774.A1.
The subject of data set [2] is Leishmania donovani. The experiment in a line: Antileishmanial activity against extracellular promastigote stage of Leishmania donovani. Format: functional, organism-based.
Data set [3] can be described thus: (§1) Cytotoxicity against African green monkey Vero cells after 72 hrs by MTT assay. The data set is classed as cell-based. Particulars: chlorocebus sabaeus, Vero cells. Background: Tetrazolium dyes change colour on reduction, which living cells bring about.
Data set [4] can be described thus: (§2) Selectivity index, ratio of CC50 for African green monkey Vero cells to IC50 for amastigote stage of Leishmania donovani MHOM/IN/80/Dd8. The data set is classed as functional.
Data set [5] deals with Vero. Described as §2. The data set is classed as functional.
The test system of data set [6] is Vero. The description is as §1. Format: cell-based. Particulars: chlorocebus sabaeus, vero, 72 h.
The mark [7] stands for this setting: Leishmania donovani, MHOM/IN/80/Dd8, J774.A1, 72 h, read-out: IC50.

Consider `Cn1c2ccc(Br)cc2c2nnc(SCCNc3ccnc4cc(Cl)ccc34)nc21`, for which the IC50 in the data set with Leishmania donovani [1] (setting [7]) and with Leishmania donovani [2] (Leishmania donovani) was > 40 µM in each case.

With `Clc1ccc2c(NCCSc3nnc4c5ccccc5n(Cc5ccccc5)c4n3)ccnc2c1`, the IC50 (as a rule, the point on the concentration scale where inhibition reaches its midpoint) is “ND(toxic)” with Leishmania donovani [1] (j774.a1) and 8.08 µM in the data set with Leishmania donovani [2] (Leishmania donovani).

As to `Clc1ccc2c(NCCSc3nnc4c(n3)[nH]c3ccc(Br)cc34)ccnc2c1`, the values for the IC50 result in the data set with Leishmania donovani [1] (j774.a1) and in the data set on Leishmania donovani [2] (Leishmania donovani) were “ND(toxic)” and 7.09 µM, respectively.

With `CCn1c2ccccc2c2nnc(SCCCCCNc3ccnc4cc(Cl)ccc34)nc21`, the IC50 result with Leishmania donovani [1] (j774.a1) is “ND(toxic)”; in the data set on Leishmania donovani [2] (Leishmania donovani), 8.95 µM.

As for `Cn1c2nc(SCCNc3ccnc4cc(Cl)ccc34)nnc2c2cccc(C(F)(F)F)c21`, in data set [3], it took 39.3 µM to reach half-maximal cytotoxicity (CC50 at 72 h). Also, the “Ratio CC50/IC50” value in data set [4] is 6. The IC50 with Leishmania donovani [1] (setting [7]) and with Leishmania donovani [2] (Leishmania donovani) was 6.46 µM each time.

With “SODIUM ANTIMONY GLUCONATE [listing 1 of 2 here]”, the Ratio CC50/IC50 in the data set with Vero [5] is > 7.

On to `CCCCn1c2ccccc2c2nnc(SCCNc3ccnc4cc(Cl)ccc34)nc21`, for which the results for the IC50 with Leishmania donovani [1] (setting [7]) and in the data set on Leishmania donovani [2] (Leishmania donovani) were 29.5 µM and > 40 µM, respectively.

For `Cn1c2ccccc2c2nnc(SCCCNc3ccnc4cc(Cl)ccc34)nc21`, the IC50 entry in the data set on Leishmania donovani [1] (j774.a1) was “ND(toxic)”; in the data set with Leishmania donovani [2] (Leishmania donovani), 24.1 µM.

In the case of `CCn1c2ccc(Br)cc2c2nnc(SCCNc3ccnc4cc(Cl)ccc34)nc21`, the IC50 with Leishmania donovani [1] (setting [7]) and in the data set on Leishmania donovani [2] (Leishmania donovani) was > 40 µM in each case.

Regarding `CCCn1c2ccccc2c2nnc(SCCNc3ccnc4cc(Cl)ccc34)nc21`, the CC50 – broadly, the concentration that lowers cell viability or growth by half – at 72 h in data set [3] is 41.7 µM. Moreover, in data set [4], the “Ratio CC50/IC50” value is listed as 3. The half-inhibitory concentration (IC50) in the data set on Leishmania donovani [1] (setting [7]) was 14.7 µM; in the data set on Leishmania donovani [2] (Leishmania donovani), > 40 µM.

Consider `CCn1c2ccccc2c2nnc(SCCCNc3ccnc4cc(Cl)ccc34)nc21`, for which the IC50 result in the data set with Leishmania donovani [1] (j774.a1) was “ND(toxic)”; with Leishmania donovani [2] (Leishmania donovani) it was 2.66 µM.

Regarding `Cn1c2ccccc2c2nnc(SCCNc3ccnc4cc(Cl)ccc34)nc21`, in data set [3], the CC50 at 72 h is > 400 µM. In addition, in data set [4], the “Ratio CC50/IC50” value was >1111. The figures for the IC50 in the data set on Leishmania donovani [1] (setting [7]) and in the data set with Leishmania donovani [2] (Leishmania donovani) were 0.36 µM and 6.27 µM, respectively.

For the molecule `Cn1c2ccccc2c2nnc(SCCCCCNc3ccnc4cc(Cl)ccc34)nc21`, the IC50 entry with Leishmania donovani [1] (j774.a1) was “ND(toxic)”; with Leishmania donovani [2] (Leishmania donovani), 15 µM.

Regarding `CC(C)n1c2ccccc2c2nnc(SCCNc3ccnc4cc(Cl)ccc34)nc21`, the CC50 at 72 h in data set [3] was found to be 19.4 µM. In addition, in data set [4], the “Ratio CC50/IC50” value is given as 7. Further, the IC50 with Leishmania donovani [1] (setting [7]) stood at 2.88 µM; in the data set on Leishmania donovani [2] (Leishmania donovani) it was 21.9 µM.

On to `Clc1ccc2c(NCCCSc3nnc4c(n3)[nH]c3ccccc34)ccnc2c1`, for which the IC50 entry is “ND(toxic)” with Leishmania donovani [1] (j774.a1) and 18.9 µM in the data set with Leishmania donovani [2] (Leishmania donovani).

For the molecule “SODIUM ANTIMONY GLUCONATE [listing 2 of 2 here]”, in the data set with Vero [6], the cytotoxic concentration (CC50) is > 400 µM. The concentration for half-maximal inhibition (IC50) in the data set with Leishmania donovani [1] (j774.a1, read-out: IC50) is 54.6 µM; in the data set with Leishmania donovani [2], > 200 µM.

In data set [3], `CC(C)Cn1c2ccccc2c2nnc(SCCNc3ccnc4cc(Cl)ccc34)nc21` showed a CC50 at 72 h of 28.6 µM. In data set [4], the “Ratio CC50/IC50” value is on record as 5. In addition, the IC50 was 5.69 µM with Leishmania donovani [1] (setting [7]) and 17 µM with Leishmania donovani [2] (Leishmania donovani).

Molecule `CCn1c2ccccc2c2nnc(SCCNc3ccnc4cc(Cl)ccc34)nc21` yielded a CC50 at 72 h in data set [3] of 61.5 µM. Also, in data set [4], the “Ratio CC50/IC50” value stood at 7. Also, the 50% inhibitory concentration (IC50) with Leishmania donovani [1] (setting [7]) came out at 7.1 µM; in the data set with Leishmania donovani [2] (Leishmania donovani), 9.1 µM.

In data set [3], `Clc1ccc2c(NCCSc3nnc4c(n3)[nH]c3ccccc34)ccnc2c1` displayed a CC50 at 72 h of 74.3 µM. The “Ratio CC50/IC50” value in data set [4] was determined as 67. Further, the IC50 in the data set with Leishmania donovani [1] (setting [7]) amounted to 1.11 µM; in the data set on Leishmania donovani [2] (Leishmania donovani), 8.75 µM.

Regarding `Cn1c2ccc([N+](=O)[O-])cc2c2nnc(SCCNc3ccnc4cc(Cl)ccc34)nc21`, the IC50 entry in the data set with Leishmania donovani [1] (j774.a1) is “ND(toxic)”; with Leishmania donovani [2] (Leishmania donovani) it was 1.95 µM.

`C=CCn1c2ccccc2c2nnc(SCCNc3ccnc4cc(Cl)ccc34)nc21` registered a CC50 at 72 h in data set [3] of 10.5 µM. Besides, in data set [4], the “Ratio CC50/IC50” value amounted to 1. For the same molecule, the IC50 in the data set on Leishmania donovani [1] (setting [7]) was 10.1 µM; in the data set on Leishmania donovani [2] (Leishmania donovani), 7.9 µM.

On to `CCCCCCCCCCCCCCCCOP(=O)([O-])OCC[N+](C)(C)C` [MILTEFOSINE], for which the “Ratio CC50/IC50” value in data set [4] worked out at 7. In addition, the IC50 with Leishmania donovani [2] (Leishmania donovani) was determined as 1.1 µM.
